Data reported in patent US12636274B2, “Pharmaceutical compositions and methods for systemic treatment of solid tumors” (7 HILLS INTERESTS LLC, priority 2014, dated 2026).

Columns and labels:
α1b1/Collagen IV = α1b1/Collagen IV (Homo sapiens, UniProt P05556+P56199); experiment: Integrin activation, adhesion α1b1/Collagen IV; format: cell-based; set-up: key: Not Active: Not active: ≤2 fold increase in adhesion; settings: 50% serum; n = 3
Description: (§1) Activating all integrins is necessary for firm endothelial cell adhesion for extravasation.

LFA-1/ICAM-1 = LFA-1/ICAM-1 (Homo sapiens, UniProt P05107+P20701); experiment: LFA-1 dependent cell adhesion to ICAM-1; format: cell-based; settings: FIG. 4; ICAM-1 and Cmpd 1 versus BSA, ICAM-1 alone, Ig and anti-integrin antibodies
Description: Referring now to FIG. 4, a histogram is shown of induced LFA-1 ([…]) dependent cell adhesion to ICAM-1 in the presence of BSA, ICAM-1, ICAM-1 and a compound of Formula (I) (Cmpd 1), Ig, anti-α4, anti-αL, anti-β1, and anti-β2.
as §1

[1] = Safety margin (STD 10) and autoimmune toxicity; settings: in vivo
α5β1/Fibronectin = α5β1/Fibronectin (Homo sapiens, UniProt P05556+P08648); experiment: Integrin activation, adhesion α5β1/Fibronectin; format: cell-based; settings: 50% serum; n = 3; read-out: Integrin Selectivity EC50 α5β1/Fibronectin
Description: as §1

VLA-4/VCAM-1 = VLA-4/VCAM-1 (Homo sapiens, UniProt P05556+P13612); experiment: VLA-4 (α4β1) dependent cell adhesion to VCAM-1; format: cell-based; settings: FIG. 3; VCAM-1 and Cmpd 1 versus BSA, VCAM-1 alone, Ig and anti-integrin antibodies
Description: Referring now to FIG. 3, a histogram is shown of induced VLA-4 (α4β1) dependent cell adhesion to VCAM-1 in the presence of BSA, VCAM-1, VCAM-1 and a compound of Formula (I) (Cmpd 1), Ig, anti-α4, anti-αL, anti-β1, and anti-β2.
as §1

ICAM-1 = experiment: Cell migration across ICAM-1 membrane toward SDF-1; format: cell-based; settings: FIG. 5; different concentrations; SDF-1 in bottom part
Procedure: Referring now to FIG. 5, an apparatus for testing VCAM-1 and ICAM-1 cell migration, where the cells are initially placed in the top part of the apparatus including a member including VCAM-1 or ICAM-1, with the bottom part of the apparatus initially including SDF-1. Cell migration is then measured from top part to the bottom part for different concentration of CDPD 1, a compound of Formula (I) of VCAM-1 and ICAM-1 impregnated membrane.

[2] = test system: CT26 colon cancer syngeneic tumor; experiment: Study 3: CT26 syngeneic tumor model in Balb/c mice, treatment from +1 day after implantation; format: in vivo, Mouse (Mus musculus)
Procedure: Mouse colon carcinoma CT26 cells were obtained from American Type Culture Collection (ATCC), USA. Cells were grown in RPMI-1640 medium (Sigma, Cat # R6504) supplemented with 10% FBS (Invitrogen, Cat #10438-026), and 1% penicillin streptomycin (Thermo Fisher Scientific, Cat #15140-122). To establish allografts, 1 million CT26 cells were suspended in 50 μL of serum-free medium and mixed at 1:1 ratio with matrigel before implanting subcutaneously into the right flank of mice.
Prior to inoculation, the skin on the injection site was swabbed with alcohol. To establish allografts, CT26 cells were suspended in serum free medium at a concentration of (1×10^6)/50 μL, mixed with equal volume of matrigel (1:1 ratio) and 100 μL of this mixture was injected to each mouse by subcutaneous implantation using a 1 mL BD syringe attached to a 24 gauge needle.
CT26 tumor xenografts were measured after approximately 1 week of cell inoculation when they become palpable. When the average tumor volume reaches around 110 mm^3, animals were randomized into treatment groups group maintaining the average tumor volume of each group similar across groups for Study 1 and Study 2. In Study 3, the animals were randomized on the basis of body weights +1 day post cell implantation.
Tumor dimensions (length and breadth) were measured on days 0 (animal randomization based on tumor volume) and thrice weekly thereafter until study termination. Tumor volumes were calculated using the formula (b^2*l)*0.52 where l=length, b=breadth (Dusan Djokovic et al., BMC Cancer, 2010, 10:641). Tumor growth inhibition was calculated after normalizing the tumor volume on a given day to that on day 1.
Mean body weight loss and percent changes were calculated for each group. Similarly, mean tumor volume and percent tumor growth inhibition were calculated. The percent tumor growth inhibition (% TGI) as a function of anti-tumor efficacy were computed with respect to untreated vehicle control by comparing to the tumor volumes of day 1 using formula described below: % TGI=[1−(Treatment TVFinal−Treatment TVInitial)/(Control TVFinal−Control TVInitial)]*100
The test agent, Compound 1 was evaluated in CT26 syngeneic tumor model in Balb/c mice. Compound 1 was administered in mice +1 day after CT26 cell implantation. Tumors were not measurable at this time, however, tumors became palpable on day 7 and tumors were measured from that point.

Sequence of α1b1/Collagen IV (P56199 29-1179): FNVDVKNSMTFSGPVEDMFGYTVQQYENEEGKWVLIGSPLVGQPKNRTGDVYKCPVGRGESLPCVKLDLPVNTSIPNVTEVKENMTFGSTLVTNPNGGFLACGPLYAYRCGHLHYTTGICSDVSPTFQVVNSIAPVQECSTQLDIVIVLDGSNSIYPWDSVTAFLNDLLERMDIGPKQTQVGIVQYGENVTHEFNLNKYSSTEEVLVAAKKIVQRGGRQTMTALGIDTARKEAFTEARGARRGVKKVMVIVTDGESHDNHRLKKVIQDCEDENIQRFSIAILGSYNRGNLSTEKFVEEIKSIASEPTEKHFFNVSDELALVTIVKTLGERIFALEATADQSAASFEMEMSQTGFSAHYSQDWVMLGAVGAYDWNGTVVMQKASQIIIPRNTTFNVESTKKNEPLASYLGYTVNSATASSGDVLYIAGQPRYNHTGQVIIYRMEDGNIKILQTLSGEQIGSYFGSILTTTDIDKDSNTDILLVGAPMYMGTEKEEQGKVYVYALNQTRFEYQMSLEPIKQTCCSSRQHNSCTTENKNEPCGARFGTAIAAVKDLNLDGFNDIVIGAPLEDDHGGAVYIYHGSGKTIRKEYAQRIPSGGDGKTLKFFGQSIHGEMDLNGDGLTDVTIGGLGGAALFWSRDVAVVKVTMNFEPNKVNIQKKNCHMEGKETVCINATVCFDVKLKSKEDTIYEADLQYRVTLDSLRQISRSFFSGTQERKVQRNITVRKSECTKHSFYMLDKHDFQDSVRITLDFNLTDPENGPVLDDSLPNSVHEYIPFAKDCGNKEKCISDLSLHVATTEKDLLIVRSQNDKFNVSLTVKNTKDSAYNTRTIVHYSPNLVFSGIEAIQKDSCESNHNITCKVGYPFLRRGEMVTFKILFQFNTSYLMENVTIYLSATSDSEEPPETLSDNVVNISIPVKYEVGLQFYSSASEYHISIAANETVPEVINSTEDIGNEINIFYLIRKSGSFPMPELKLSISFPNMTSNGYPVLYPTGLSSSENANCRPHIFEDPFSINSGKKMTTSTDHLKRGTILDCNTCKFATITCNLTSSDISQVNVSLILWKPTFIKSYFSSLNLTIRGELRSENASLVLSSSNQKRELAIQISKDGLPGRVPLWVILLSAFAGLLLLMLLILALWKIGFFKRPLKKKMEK
Sequence of α1b1/Collagen IV (P05556 21-798): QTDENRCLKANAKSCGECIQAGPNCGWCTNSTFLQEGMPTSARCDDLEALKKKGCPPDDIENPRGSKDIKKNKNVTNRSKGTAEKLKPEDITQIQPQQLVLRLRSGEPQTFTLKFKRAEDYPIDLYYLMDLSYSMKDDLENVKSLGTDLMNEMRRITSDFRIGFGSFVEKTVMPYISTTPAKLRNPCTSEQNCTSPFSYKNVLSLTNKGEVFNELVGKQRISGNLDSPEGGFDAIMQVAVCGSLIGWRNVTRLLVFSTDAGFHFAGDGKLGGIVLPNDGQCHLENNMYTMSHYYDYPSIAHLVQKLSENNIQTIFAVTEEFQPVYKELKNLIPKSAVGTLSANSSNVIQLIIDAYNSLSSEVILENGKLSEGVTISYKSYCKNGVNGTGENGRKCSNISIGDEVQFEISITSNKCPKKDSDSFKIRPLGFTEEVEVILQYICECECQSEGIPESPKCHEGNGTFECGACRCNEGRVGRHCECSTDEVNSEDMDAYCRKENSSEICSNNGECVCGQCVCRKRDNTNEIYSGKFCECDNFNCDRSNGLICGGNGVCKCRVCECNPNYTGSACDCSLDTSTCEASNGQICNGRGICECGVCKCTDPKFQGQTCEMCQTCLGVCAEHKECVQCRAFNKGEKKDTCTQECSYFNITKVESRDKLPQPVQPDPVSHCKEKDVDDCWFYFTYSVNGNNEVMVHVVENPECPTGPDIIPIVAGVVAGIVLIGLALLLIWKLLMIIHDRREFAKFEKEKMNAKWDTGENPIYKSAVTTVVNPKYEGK
Sequence of VLA-4/VCAM-1 (P13612 34-1032): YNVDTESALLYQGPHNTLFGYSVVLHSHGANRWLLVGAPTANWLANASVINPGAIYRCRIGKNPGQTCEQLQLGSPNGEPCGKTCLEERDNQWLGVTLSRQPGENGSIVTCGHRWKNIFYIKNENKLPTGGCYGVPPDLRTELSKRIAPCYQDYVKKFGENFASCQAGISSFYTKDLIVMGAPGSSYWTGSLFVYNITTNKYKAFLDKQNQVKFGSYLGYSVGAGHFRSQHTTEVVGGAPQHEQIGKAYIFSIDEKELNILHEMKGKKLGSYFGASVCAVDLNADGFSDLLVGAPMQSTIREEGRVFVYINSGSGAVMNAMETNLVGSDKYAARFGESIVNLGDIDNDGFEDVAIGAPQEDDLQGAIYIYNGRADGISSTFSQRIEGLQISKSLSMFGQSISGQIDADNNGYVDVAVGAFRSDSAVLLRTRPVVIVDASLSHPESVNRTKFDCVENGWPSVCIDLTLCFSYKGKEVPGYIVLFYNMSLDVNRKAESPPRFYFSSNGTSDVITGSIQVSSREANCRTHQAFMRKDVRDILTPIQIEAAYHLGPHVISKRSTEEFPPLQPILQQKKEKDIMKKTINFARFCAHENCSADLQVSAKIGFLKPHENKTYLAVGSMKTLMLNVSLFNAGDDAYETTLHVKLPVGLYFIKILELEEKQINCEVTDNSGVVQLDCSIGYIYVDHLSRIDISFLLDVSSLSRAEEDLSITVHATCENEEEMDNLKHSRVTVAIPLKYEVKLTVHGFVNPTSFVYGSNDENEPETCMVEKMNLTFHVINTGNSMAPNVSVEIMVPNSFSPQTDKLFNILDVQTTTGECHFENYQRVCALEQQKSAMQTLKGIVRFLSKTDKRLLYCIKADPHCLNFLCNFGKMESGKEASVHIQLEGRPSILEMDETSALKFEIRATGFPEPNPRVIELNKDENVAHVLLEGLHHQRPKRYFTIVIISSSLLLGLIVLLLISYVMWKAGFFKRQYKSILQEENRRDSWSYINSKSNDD
Sequence of VLA-4/VCAM-1 (P05556 21-798): as the sequence (P05556 21-798) above
Sequence of LFA-1/ICAM-1 (P20701 26-1170): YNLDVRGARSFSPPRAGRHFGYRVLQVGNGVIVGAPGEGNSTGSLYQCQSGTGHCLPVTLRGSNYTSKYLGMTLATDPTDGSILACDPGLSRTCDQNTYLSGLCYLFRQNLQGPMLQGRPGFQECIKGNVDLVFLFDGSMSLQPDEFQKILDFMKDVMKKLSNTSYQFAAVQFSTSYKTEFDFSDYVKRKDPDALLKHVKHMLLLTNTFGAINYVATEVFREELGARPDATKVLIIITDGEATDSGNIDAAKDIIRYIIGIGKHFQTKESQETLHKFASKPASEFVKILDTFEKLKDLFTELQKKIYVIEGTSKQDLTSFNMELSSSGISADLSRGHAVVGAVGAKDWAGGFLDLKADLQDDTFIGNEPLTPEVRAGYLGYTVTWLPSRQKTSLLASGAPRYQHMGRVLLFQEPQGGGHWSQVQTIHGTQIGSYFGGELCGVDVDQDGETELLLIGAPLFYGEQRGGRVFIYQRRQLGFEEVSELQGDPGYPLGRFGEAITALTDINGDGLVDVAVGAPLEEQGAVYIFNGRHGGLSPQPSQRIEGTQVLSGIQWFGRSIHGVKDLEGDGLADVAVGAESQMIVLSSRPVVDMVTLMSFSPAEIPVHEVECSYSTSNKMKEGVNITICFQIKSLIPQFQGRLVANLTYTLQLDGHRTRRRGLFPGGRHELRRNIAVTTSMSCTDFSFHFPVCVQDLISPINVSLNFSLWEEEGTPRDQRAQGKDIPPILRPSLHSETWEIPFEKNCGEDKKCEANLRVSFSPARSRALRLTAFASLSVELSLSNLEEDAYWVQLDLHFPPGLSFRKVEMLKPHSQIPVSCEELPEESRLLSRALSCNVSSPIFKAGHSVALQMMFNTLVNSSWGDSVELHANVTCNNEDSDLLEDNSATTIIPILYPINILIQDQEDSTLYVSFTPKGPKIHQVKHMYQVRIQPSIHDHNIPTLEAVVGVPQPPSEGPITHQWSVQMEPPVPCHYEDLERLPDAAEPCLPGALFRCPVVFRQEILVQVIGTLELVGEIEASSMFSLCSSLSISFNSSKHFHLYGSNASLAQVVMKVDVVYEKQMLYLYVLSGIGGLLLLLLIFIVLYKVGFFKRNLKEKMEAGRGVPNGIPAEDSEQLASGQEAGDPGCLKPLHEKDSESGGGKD
Sequence of LFA-1/ICAM-1 (P05107 23-769): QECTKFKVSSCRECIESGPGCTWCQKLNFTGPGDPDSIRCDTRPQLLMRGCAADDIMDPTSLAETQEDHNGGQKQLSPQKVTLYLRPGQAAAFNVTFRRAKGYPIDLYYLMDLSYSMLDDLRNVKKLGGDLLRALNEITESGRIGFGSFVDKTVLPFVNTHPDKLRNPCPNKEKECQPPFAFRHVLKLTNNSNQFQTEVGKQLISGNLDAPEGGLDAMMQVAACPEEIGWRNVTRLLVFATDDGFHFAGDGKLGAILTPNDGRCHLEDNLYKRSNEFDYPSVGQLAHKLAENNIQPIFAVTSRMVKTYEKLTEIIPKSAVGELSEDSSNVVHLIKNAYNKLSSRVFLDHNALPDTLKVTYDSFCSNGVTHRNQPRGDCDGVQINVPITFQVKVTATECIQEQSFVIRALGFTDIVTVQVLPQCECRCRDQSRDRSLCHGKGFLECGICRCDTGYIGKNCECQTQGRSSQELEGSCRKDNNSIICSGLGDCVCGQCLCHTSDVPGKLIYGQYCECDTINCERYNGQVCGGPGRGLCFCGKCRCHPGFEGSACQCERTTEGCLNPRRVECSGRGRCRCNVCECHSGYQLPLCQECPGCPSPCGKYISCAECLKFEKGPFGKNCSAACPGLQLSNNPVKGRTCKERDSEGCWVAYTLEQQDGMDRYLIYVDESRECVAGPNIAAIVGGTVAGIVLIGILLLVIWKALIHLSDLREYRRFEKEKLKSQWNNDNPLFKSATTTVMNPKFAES

O=C(OCCOCCOCCOC(=O)N(Cc1cccs1)Cc1cccs1)N(Cc1cccs1)Cc1cccs1 [Compound 1, 3-oxo-1-(2-thienyl)-2-(2-thienylmethyl)-4,7,10-trioxa-2-azadodecan-12-yl bis(2-thienylmethyl)carbamate]
Integrin Selectivity EC50 α1b1/Collagen IV (α1b1/Collagen IV): Not Active
bound cells, adhesion to ICAM-1 (LFA-1/ICAM-1): highest bound cells
autoimmune toxicity [1]: no autoimmune toxicity
safety margin (STD 10) [1]: > 300 times therapeutic exposure
EC50 (α5β1/Fibronectin): 7.7 ± 2.3 µM
bound cells, adhesion to VCAM-1 (VLA-4/VCAM-1): highest bound cells
cell migration, ICAM-1 (ICAM-1): migration enhancement
Average Tumor Volume, Mean ([2]; 1 mg/kg BID (IP), Day 7): 91 mm^3
Average Tumor Volume, Mean ([2]; 1 mg/kg BID (IP), Day 10): 159 mm^3
Average Tumor Volume, Mean ([2]; 1 mg/kg BID (IP), Day 12): 269 mm^3
Average Tumor Volume, Mean ([2]; 1 mg/kg BID (IP), Day 14): 342^‡ mm^3
Average Tumor Volume, Mean ([2]; 1 mg/kg BID (IP), Day 16): 512^‡‡ mm^3
Average Tumor Volume, Mean ([2]; 1 mg/kg BID (IP), Day 18): 689^‡‡ mm^3
Average Tumor Volume, Mean ([2]; 1 mg/kg IP QD, Day 7): 96 mm^3
Average Tumor Volume, Mean ([2]; 1 mg/kg IP QD, Day 10): 193 mm^3
Average Tumor Volume, Mean ([2]; 1 mg/kg IP QD, Day 12): 312 mm^3
Average Tumor Volume, Mean ([2]; 1 mg/kg IP QD, Day 14): 415^† mm^3
Average Tumor Volume, Mean ([2]; 1 mg/kg IP QD, Day 16): 566^†† mm^3
Average Tumor Volume, Mean ([2]; 1 mg/kg IP QD, Day 18): 768^‡ mm^3
inhibition in tumor volume (TGI) ([2]; IP BID (1 mg/kg), day 14, p<0.01): 57.6%
inhibition in tumor volume (TGI) ([2]; IP QD (1 mg/kg), day 14, p<0.05): 46.1%
